System: adhesion formation
Assay: Adhesion formation after CO2 laser injury under CO2 or CO2/O2 pneumoperitoneum, scored at second-look laparoscopy after one week
Format: in vivo, New Zealand white rabbits
Parameters: key to Mean total adhesion score: sum of extent (0-4), type (0-3), tenacity (0-3), inflammation (0-3)
Description: All animals received two standard CO2 laser injuries. A non opposing lesion was inflicted in the retro-uterine space, i.e. on the posterior utero-vaginal wall, consisting of a 2 cm^2; vaporization of the superficial layers with CO2 laser. In addition, an apposing lesion was performed in the oviduct and pelvic side wall, consisting of a 2 cm^2 vaporization, on both sides. The time required to induce the lesions varied from 3 to 7 minutes.
Animals were assigned randomly on a daily base, to one of the following seven experimental groups. First and second groups were considered control groups. In group 1, using conventional CO2 pneumoperitoneum, the total duration of the procedure was restricted to 10 minutes.
Adhesions were evaluated by laparoscopy after one week. All second look laparoscopies were videotaped, and subsequently scored blindly by two investigators, taking into account extent (0 to 4 points), type (0 to 3 points), tenacity (0 to 3 points) and inflammatory reaction (0 to 3 points) at the injury and at de-novo siteds.
Sixty five New Zealand white rabbits weighing between 2150 and 3000 grams were operated with a standard 3 puncture laparoscopy. Standard surgical injuries were inflicted with CO2 laser (Sharplan 1060: Sharplan, Tel Aviv, Israel) with a spot diameter of 1 mm and a power setting of 10 watts in the continuous superpulse mode. […] The output of both insufflators was mixed in a mixing chamber, humidified and warmed. The insufflation pressure was 10 cm of water and the intra-abdominal flow rate 20 l/min. It is obvious that all means in contact with O2 are adapted therefor.

Compound: O=C=O [CO2, carbon dioxide, reference compound]
- P of difference in total adhesion score versus control group with 100% CO2 (Group 2, 60′ CO2) (10′ CO2 (group 1)): P = 0.0002
- Mean total adhesion score (group 1: pure CO2 pneumoperitoneum, procedure restricted to 10 minutes): 4.5±3.7
- Mean total adhesion score (group 2: pure CO2 pneumoperitoneum maintained 70 minutes): 17.5±6.7
- Increase of adhesion scores, 60 min exposure in comparison with 10 min exposure (pure CO2, 60 min vs 10 min): 4 fold

Compound: O=O [O2, oxygen]
- P of difference in total adhesion score versus control group with 100% CO2 (Group 2, 60′ CO2) (60′ 2.5% O2 (group 4)): P = 0.05
- P of difference in total adhesion score versus control group with 100% CO2 (Group 2, 60′ CO2) (60′ 5% O2 (group 5)): P = 0.0005
- P of difference in total adhesion score versus control group with 100% CO2 (Group 2, 60′ CO2) (60′ 10% O2 (group 6)): P = 0.007
- P of difference in total adhesion score versus control group with 100% CO2 (Group 2, 60′ CO2) (60′ 20% O2 (group 7)): P = 0.005
- P of decrease in total adhesion score with the addition of O2 (de novo adhesions around the opposite tube): 0.0001
- Adhesiogenic effect of CO2 (from a final concentration of 5% oxygen onwards, together with CO2): completely abolished
- Mean total adhesion score (group 3: CO2 with 1% O2, pneumoperitoneum 70 minutes): 15.8±5.2
- Mean total adhesion score (group 5: CO2 with 5% O2, pneumoperitoneum 70 minutes): 5.3±3.8
- Mean total adhesion score (group 6: CO2 with 10% O2, pneumoperitoneum 70 minutes): 6.6±4.4
- Mean total adhesion score (group 7: CO2 with 20% O2, pneumoperitoneum 70 minutes): 6.3±2.5
- Amount of adhesions (increasing concentrations of oxygen in CO2 pneumoperitoneum): decreased progressively
- P of decrease in total adhesion score with the addition of O2 (non opposing lesion in the pouch of Douglas): 0.0002
- P of decrease in total adhesion score with the addition of O2 (opposing lesion in tube/side wall): 0.0014
